Data from US5348965A, “N-substituted azaheterocyclic carboxylic acids” (Novo Nordisk A/S, priority 1991, dated 1994).
Where a name gives a salt, the structure may show the parent alone.

Tested on: [^3 H]-GABA uptake
Assay: in vitro inhibition of [^3 H]-GABA uptake (method of Fjalland)
Assay type: biochemical
Conditions: Male wistar rat cortical tissue homogenate; tris HCl buffer pH 7.5; 60 minutes at 30° C.
Experimental: Values for in vitro inhibition of [^3 H]-GABA uptake for the invention compounds were assessed essentially by the method of Fjalland (Acta Pharmacol. Toxicol. 1978, 42, 73-76). Male wistar rat cortical tissue was gently homogenized by hand using a glass/PTFE homogenizer in 10 volumes of 0.32 M sucrose. Incubation was performed in a 40 mM tris HCl buffer (pH 7.5 at 30° C.) containing […], 4 mM MgSO4, […] and 10 mM glucose, for 60 minutes at 30° C. Values for inhibition of GABA uptake for some representative compounds are recorded in Table I.

| IC50 | Compound |
| --- | --- |
| 119 nM | O=C(O)[C@@H]1CCCN(CCOCCN2c3ccccc3Sc3ccc(Cl)cc32)C1 [Example 2c, (R)-N-(2-(2-(2-Chloro-10H-phenothiazin-10-yl)ethoxy)ethyl)-3-piperidinecarboxylic acid hydrochloride] |
| 900 nM | O=C(O)[C@@H]1CCCN(CCCOCC=C2c3ccccc3CCc3ccccc32)C1 [Example 5, (R)-N-(3-(2-(10,11-Dihydro-5H-dibenzo[a,d]cyclohepten-5-ylidene)ethoxy)-1-propyl)-3-piperidinecarboxylic acid hydrochloride] |
| 1130 nM | O=C(O)[C@@H]1CCCN(CCON=C2c3ccccc3CCc3ccccc32)C1 [Example 7, (R)-N-(2-(((10,11-Dihydro-5H-dibenzo[a,d]cyclohepten-5-ylidene)amino)oxy)ethyl)-3-piperidinecarboxylic acid hydrochloride] |
| 306 nM | O=C(O)[C@@H]1CCCN(CCOCCN2c3ccccc3Sc3ccccc32)C1 [Example 2a, (R)-N-(2-(2-(10H-Phenothiazin-10-yl)ethoxy)ethyl)-3-piperidinecarboxylic acid hydrochloride] |
| 754 nM | O=C(O)[C@@H]1CCCN(CCOCC=C2c3ccccc3CCc3ccccc32)C1 [Example 3, (R)-N-(2-(2-(10,11-Dihydro-5H-dibenzo[a,d]cyclohepten-5-ylidene)ethoxy)ethyl)-3-piperidinecarboxylic acid hydrochloride] |
| 222 nM | O=C(O)[C@@H]1CCCN(CCOCCN2c3ccccc3CCc3ccccc32)C1 [Example 1, (R)-N-(2-(2-(10,11-Dihydro-5H-dibenz[b,f]azepin-5-yl)ethoxy)ethyl)-3-piperidinecarboxylic acid hydrochloride] |

Tested on: GABA uptake
Assay: not given
Conditions: from the synaptic cleft into presynaptic nerve terminals and glial cells; cited from earlier work

| Compound | inhibition of GABA uptake |
| --- | --- |
| O=C(O)C1CCCNC1 (centres unmarked) [3-piperidinecarboxylic acid] | potent inhibitor of GABA uptake |

Tested on: GABA uptake
Assay: not given
Conditions: oral; Yunger et al., J. Pharm. Exp. Ther. 1984, 228, 109; cited from earlier work

| Compound | orally active inhibition of GABA uptake |
| --- | --- |
| O=C(O)C1=CCCN(CCC=C(c2ccccc2)c2ccccc2)C1 [SK&F 100330A, N-(4,4-diphenyl-3-buten-1-yl)guvacine] | orally active inhibitors of GABA uptake |
| O=C(O)C1CCCN(CCC=C(c2ccccc2)c2cccs2)C1 (centres unmarked) [SK&F 100604J, N-(4-phenyl-4-(2-thienyl)-3-buten-1-yl)nipecotic acid] | orally active inhibitors of GABA uptake |
| O=C(O)CC1CCN(CCC=C(c2ccccc2)c2ccccc2)C1 (stereo not drawn) [SK&F 100561, N-(4,4-diphenyl-3-buten-1-yl)-homo-β-proline] | orally active inhibitors of GABA uptake |
| O=C(O)C1CCCN(CCC=C(c2ccccc2)c2ccccc2)C1 (centres unmarked) [SK&F 89976A, N-(4,4-diphenyl-3-buten-1-yl)nipecotic acid] | orally active inhibitors of GABA uptake |
